# Reference: PubChem BioAssay (NCI)
#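 Assay format: 96-well plates, 48-hour exposure. TGI: total growth inhibition.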
# Tests used:
# Assay in all cases: growth of human tumour cells (NCI), 48 h
# BT-549 breast = tested on: BT-549 breast
# MCF7 breast = tested on: MCF7 breast
# SK-MEL-28 melanoma = tested on: SK-MEL-28 melanoma
# K-562 leukemia = tested on: K-562 leukemia
# UACC-62 melanoma = tested on: UACC-62 melanoma
# HL-60(TB) leukemia = tested on: HL-60(TB) leukemia
# HOP-62 NSCLC = tested on: HOP-62 NSCLC
# NCI/ADR-RES ovarian = tested on: NCI/ADR-RES ovarian
# SK-OV-3 ovarian = tested on: SK-OV-3 ovarian
# RXF 393 renal = tested on: RXF 393 renal
# M14 melanoma = tested on: M14 melanoma
# EKVX NSCLC = tested on: EKVX NSCLC
# OVCAR-4 ovarian = tested on: OVCAR-4 ovarian
# HT29 colon = tested on: HT29 colon
# OVCAR-5 ovarian = tested on: OVCAR-5 ovarian
# HCC-2998 colon = tested on: HCC-2998 colon
# TK-10 renal = tested on: TK-10 renal
# IGROV1 ovarian = tested on: IGROV1 ovarian
# MDA-N = tested on: MDA-N
# 786-0 renal = tested on: 786-0 renal
# KM12 colon = tested on: KM12 colon
# ACHN renal = tested on: ACHN renal
# SF-539 CNS = tested on: SF-539 CNS
# DU-145 prostate = tested on: DU-145 prostate
# CAKI-1 renal = tested on: CAKI-1 renal
# OVCAR-8 ovarian = tested on: OVCAR-8 ovarian
# SW-620 colon = tested on: SW-620 colon
# COLO 205 colon = tested on: COLO 205 colon
# T-47D breast = tested on: T-47D breast
# HS 578T breast = tested on: HS 578T breast
# NCI-H460 lung = tested on: NCI-H460 lung
# MDA-MB-231 breast = tested on: MDA-MB-231 breast
# U251 CNS = tested on: U251 CNS
# SF-295 CNS = tested on: SF-295 CNS
# MOLT-4 leukemia = tested on: MOLT-4 leukemia
# MDA-MB-435 = tested on: MDA-MB-435
# SK-MEL-2 melanoma = tested on: SK-MEL-2 melanoma
# SN12C renal = tested on: SN12C renal
# HOP-92 NSCLC = tested on: HOP-92 NSCLC
# UACC-257 melanoma = tested on: UACC-257 melanoma
# SR leukemia = tested on: SR leukemia
# PC-3 prostate = tested on: PC-3 prostate
# NCI-H23 lung = tested on: NCI-H23 lung
# MALME-3M melanoma = tested on: MALME-3M melanoma
# UO-31 renal = tested on: UO-31 renal
# HCT-116 colon = tested on: HCT-116 colon
# SNB-19 CNS = tested on: SNB-19 CNS
# SNB-75 CNS = tested on: SNB-75 CNS
# A549 NSCLC = tested on: A549 NSCLC
# RPMI-8226 leukemia = tested on: RPMI-8226 leukemia
# SF-268 CNS = tested on: SF-268 CNS
# CCRF-CEM leukemia = tested on: CCRF-CEM leukemia
# HCT-15 colon = tested on: HCT-15 colon
# OVCAR-3 ovarian = tested on: OVCAR-3 ovarian
# LOX IMVI melanoma = tested on: LOX IMVI melanoma
# A498 renal = tested on: A498 renal
# NCI-H226 lung = tested on: NCI-H226 lung
# SK-MEL-5 melanoma = tested on: SK-MEL-5 melanoma
# NCI-H522 lung = tested on: NCI-H522 lung
smiles,measurement,setting,value
CC1(c2ccc(Cl)cc2)CC(c2ccc(Cl)cc2)=C(C#N)C(=C(C#N)C#N)N1 (configuration not stated),TGI,BT-549 breast,42.2 µM
same,TGI,MCF7 breast,49.8 µM
same,TGI,SK-MEL-28 melanoma,> 100 µM
same,TGI,K-562 leukemia,66.2 µM
same,TGI,UACC-62 melanoma,33.5 µM
same,TGI,HL-60(TB) leukemia,78.6 µM
same,TGI,HOP-62 NSCLC,25.1 µM
same,TGI,NCI/ADR-RES ovarian,46.5 µM
same,TGI,SK-OV-3 ovarian,31.2 µM
same,TGI,RXF 393 renal,32.1 µM
same,TGI,M14 melanoma,36.6 µM
same,TGI,EKVX NSCLC,35.6 µM
same,TGI,OVCAR-4 ovarian,35.7 µM
same,TGI,HT29 colon,> 100 µM
same,TGI,OVCAR-5 ovarian,61.9 µM
same,TGI,HCC-2998 colon,29.5 µM
same,TGI,TK-10 renal,32.6 µM
same,TGI,IGROV1 ovarian,28.8 µM
same,TGI,MDA-N,38.5 µM
same,TGI,786-0 renal,24.7 µM
same,TGI,KM12 colon,40.3 µM
same,TGI,ACHN renal,28 µM
same,TGI,SF-539 CNS,40.7 µM
same,TGI,DU-145 prostate,28.2 µM
same,TGI,CAKI-1 renal,32.5 µM
same,TGI,OVCAR-8 ovarian,34 µM
same,TGI,SW-620 colon,> 100 µM
same,TGI,COLO 205 colon,28.7 µM
same,TGI,T-47D breast,40 µM
same,TGI,HS 578T breast,50.3 µM
same,TGI,NCI-H460 lung,73.3 µM
same,TGI,MDA-MB-231 breast,55.8 µM
same,TGI,U251 CNS,29.5 µM
same,TGI,SF-295 CNS,32.6 µM
same,TGI,MOLT-4 leukemia,60.3 µM
same,TGI,MDA-MB-435,34.7 µM
same,TGI,SK-MEL-2 melanoma,63.4 µM
same,TGI,SN12C renal,37.2 µM
same,TGI,HOP-92 NSCLC,11 µM
same,TGI,UACC-257 melanoma,37.1 µM
same,TGI,SR leukemia,> 100 µM
same,TGI,PC-3 prostate,31.9 µM
same,TGI,NCI-H23 lung,34.7 µM
same,TGI,MALME-3M melanoma,32.3 µM
same,TGI,UO-31 renal,30.7 µM
same,TGI,HCT-116 colon,31.7 µM
same,TGI,SNB-19 CNS,39.6 µM
same,TGI,SNB-75 CNS,34.7 µM
same,TGI,A549 NSCLC,53.3 µM
same,TGI,RPMI-8226 leukemia,> 100 µM
same,TGI,SF-268 CNS,22.6 µM
same,TGI,CCRF-CEM leukemia,> 100 µM
same,TGI,HCT-15 colon,32.5 µM
same,TGI,OVCAR-3 ovarian,24.3 µM
same,TGI,LOX IMVI melanoma,33.6 µM
same,TGI,A498 renal,40 µM
same,TGI,NCI-H226 lung,75.8 µM
same,TGI,SK-MEL-5 melanoma,27.2 µM
O=C(CSc1nc(=O)[nH]c2nc[nH]c12)Nc1ccccc1,TGI,BT-549 breast,> 100 µM
same,TGI,NCI-H522 lung,> 100 µM
same,TGI,MCF7 breast,> 100 µM
same,TGI,SK-MEL-28 melanoma,> 100 µM
same,TGI,K-562 leukemia,> 100 µM
same,TGI,UACC-62 melanoma,> 100 µM
same,TGI,HL-60(TB) leukemia,> 100 µM
same,TGI,HOP-62 NSCLC,> 100 µM
same,TGI,NCI/ADR-RES ovarian,> 100 µM
same,TGI,SK-OV-3 ovarian,> 100 µM
same,TGI,RXF 393 renal,> 100 µM
same,TGI,M14 melanoma,> 100 µM
same,TGI,EKVX NSCLC,> 100 µM
same,TGI,OVCAR-4 ovarian,> 100 µM
same,TGI,HT29 colon,> 100 µM
same,TGI,OVCAR-5 ovarian,> 100 µM
same,TGI,HCC-2998 colon,> 100 µM
same,TGI,TK-10 renal,> 100 µM
same,TGI,IGROV1 ovarian,> 100 µM
same,TGI,MDA-N,> 100 µM
same,TGI,786-0 renal,> 100 µM
same,TGI,KM12 colon,> 100 µM
same,TGI,ACHN renal,> 100 µM
same,TGI,SF-539 CNS,88.1 µM
same,TGI,DU-145 prostate,> 100 µM
same,TGI,CAKI-1 renal,> 100 µM
same,TGI,OVCAR-8 ovarian,> 100 µM
same,TGI,SW-620 colon,> 100 µM
same,TGI,COLO 205 colon,> 100 µM
same,TGI,T-47D breast,> 100 µM
same,TGI,HS 578T breast,> 100 µM
same,TGI,NCI-H460 lung,> 100 µM
same,TGI,MDA-MB-231 breast,> 100 µM
same,TGI,U251 CNS,> 100 µM
same,TGI,SF-295 CNS,> 100 µM
same,TGI,MOLT-4 leukemia,> 100 µM
same,TGI,MDA-MB-435,> 100 µM
same,TGI,SK-MEL-2 melanoma,> 100 µM
same,TGI,SN12C renal,> 100 µM
same,TGI,HOP-92 NSCLC,> 100 µM
same,TGI,UACC-257 melanoma,> 100 µM
same,TGI,SR leukemia,> 100 µM
same,TGI,PC-3 prostate,> 100 µM
same,TGI,NCI-H23 lung,> 100 µM
same,TGI,MALME-3M melanoma,> 100 µM
same,TGI,UO-31 renal,> 100 µM
same,TGI,HCT-116 colon,> 100 µM
same,TGI,SNB-19 CNS,> 100 µM
same,TGI,SNB-75 CNS,> 100 µM
same,TGI,A549 NSCLC,> 100 µM
same,TGI,RPMI-8226 leukemia,> 100 µM
same,TGI,SF-268 CNS,> 100 µM
same,TGI,CCRF-CEM leukemia,> 100 µM
same,TGI,HCT-15 colon,> 100 µM
same,TGI,OVCAR-3 ovarian,> 100 µM
same,TGI,LOX IMVI melanoma,> 100 µM
same,TGI,A498 renal,> 100 µM
same,TGI,NCI-H226 lung,> 100 µM
same,TGI,SK-MEL-5 melanoma,> 100 µM
